{"source": "patent US20110151529A1", "about": "“METHODS AND PROCESSES FOR PRODUCING ORGANIC ACIDS” (THE OHIO STATE UNIVERSITY, priority 2008, published 2011)", "test_system": "C. tyrobutyricum adapted culture from the FBB", "format": "cell-based, Clostridium tyrobutyricum", "details": "butyrate concentration increased from nil to 30 g/L"}
{"smiles": "CCCC(=O)O", "note": "[butyric acid]", "values": [{"measurement": "growth ability retained", "result": "more than 50%"}]}
